Results taken from patent publication US20050091702A1, “Expression of polypeptides in rod outer segment membranes” (priority 2001, published 2005).
One block for each compound: values may come before it.

Assays:
[1] = target: T1, 5HT1A receptor (Homo sapiens, UniProt P08908); assay: [35S]GTPγS binding to transgenic tadpole membranes expressing 5HT1A; type: biochemical
T1 construct: expressed in transfected cells; host or cells: transgenic Xenopus laevis tadpoles (rod cells; homogenized membranes), transgene pXOP-5HTR-GFP-1D4
Method: (§1) A receptor binding assay was performed to determine retention of functional receptor using [^35S]GTPγS labeled receptor ligand. Transgenic tadpoles (stage 48 or older) or CHO cells expressing 5HT1A receptors were homogenized in binding buffer (20 mM HEPES, pH 7.4, 10 mM MgCl2, 1 mM EDTA, 100 mM NaCl). The binding assay was performed in 96-well Scintiplate (PerkinElmer). To reduce [^35S]-GTPγS binding to rhodopsin-activated transducin in retina membrane, the membrane from tadpoles was preincubated with 10 mM hydroxylamine in binding buffer at room temperature for 60 min. The membranes (25 μg/well) were incubated with indicated ligands for 30 min in a total volume of 150 μl binding buffer containing 10 μM GDP, 0.5% BSA, 1 mM DTT), then 50 μl of […] [^35S]-GTPγS was added to each well to make a final concentration of 200 pM. The binding assays were carried out at room temperature for 60 min under gentle shaking. Final concentration of hydroxylamine in binding assay should be no more than 1 mM, Nonspecific binding was determined in the presence of 10 μM unlabelled GTPγS. Assays were terminated by centrifugation at 4000 g for 15 min and removal of supernatant. The radioactivity was measured by a TopCounter (PerkinElmer). Assays were performed in triplicate. […]
T1 sequence (P08908 with tags, fused parts or gaps): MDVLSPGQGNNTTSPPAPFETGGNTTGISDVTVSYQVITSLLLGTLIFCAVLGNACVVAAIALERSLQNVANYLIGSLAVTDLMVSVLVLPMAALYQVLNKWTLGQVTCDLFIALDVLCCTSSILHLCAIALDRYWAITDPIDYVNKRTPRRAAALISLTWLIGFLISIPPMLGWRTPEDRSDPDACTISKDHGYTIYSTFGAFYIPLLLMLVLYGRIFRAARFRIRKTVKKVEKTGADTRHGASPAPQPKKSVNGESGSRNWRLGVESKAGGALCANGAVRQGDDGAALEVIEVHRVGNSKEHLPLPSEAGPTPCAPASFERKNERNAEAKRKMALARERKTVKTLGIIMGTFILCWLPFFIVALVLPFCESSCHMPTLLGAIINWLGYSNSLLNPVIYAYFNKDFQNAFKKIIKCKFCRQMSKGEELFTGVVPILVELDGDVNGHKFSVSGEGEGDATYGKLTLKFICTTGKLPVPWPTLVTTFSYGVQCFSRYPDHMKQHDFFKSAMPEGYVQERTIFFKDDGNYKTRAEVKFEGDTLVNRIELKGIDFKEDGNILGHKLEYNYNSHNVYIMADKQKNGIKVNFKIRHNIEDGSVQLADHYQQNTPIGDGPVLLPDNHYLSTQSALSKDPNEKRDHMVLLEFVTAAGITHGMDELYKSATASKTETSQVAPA

[2] = target: T2, 5HT1A receptor (Homo sapiens, UniProt P08908); assay: [35S]GTPγS binding to CHO membranes transiently expressing 5HT1A; type: biochemical; conditions: CHO cells expressing 5HT1A
T2 construct: expressed in transfected cells; host or cells: CHO cells (transient expression)
T2 sequence (P08908 1-422): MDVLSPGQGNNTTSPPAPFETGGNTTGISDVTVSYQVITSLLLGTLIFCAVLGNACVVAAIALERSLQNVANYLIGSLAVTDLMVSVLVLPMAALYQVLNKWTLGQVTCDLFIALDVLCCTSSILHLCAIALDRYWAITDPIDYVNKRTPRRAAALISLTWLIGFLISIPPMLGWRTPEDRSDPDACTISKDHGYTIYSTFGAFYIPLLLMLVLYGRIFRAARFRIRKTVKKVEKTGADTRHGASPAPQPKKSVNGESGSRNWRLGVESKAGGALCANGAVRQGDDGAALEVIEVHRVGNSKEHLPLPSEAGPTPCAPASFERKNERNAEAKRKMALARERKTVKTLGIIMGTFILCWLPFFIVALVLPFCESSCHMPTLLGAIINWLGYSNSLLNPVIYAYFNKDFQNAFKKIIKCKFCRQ
Method: as §1

[3] = target: T3, 5HT1AR-GFP-1D4 fusion protein (Homo sapiens, UniProt P08908); assay: Saturation radioligand binding to transgenic tadpole membranes expressing 5HT1AR-GFP-1D4
T3 construct: expressed in transfected cells; host or cells: transgenic Xenopus laevis tadpoles (rod cells; homogenized membranes), transgene pXOP-5HTR-GFP-1D4
Method: (§2) Radioligand binding assay were performed using transgenic tadpoles (stage 48 or older) or CHO cells expressing 5HT1A receptors homogenized in binding buffer (50 mM Tris-HCl, pH 7.4, 2 mM MgCl2, 1 mM EDTA and proteinase inhibitor cocktail). The binding assay was performed in 96-well plate with [methyl-^3H]-MPPE as a radioligand. For saturation binding analyses, the membranes (20 μg/well) were incubated with 0.05% saponin in a final volume of 50 μl at room temperature for 10 min, and then incubated with 50 μl of [methyl-^3H]-MPPE (0-50 nM) for another 90 min. Nonspecific binding was determined in the presence of 10 μM serotonin. Assays were terminated by rapid filtration through GF/C filter plate with 4 times washes with washing buffer (20 mM Trics-HCl, pH 7.4). The radioactivity was measured by a TopCount (PerkinElmer). Assays were performed in duplicate.
(§3) Binding assays were performed to confirm that the 5HT1A receptor was expressed as a functional 5HT1AR-GPF-1D4 fusion protein in rod cell ROS of Xenopus tadpoles. Binding affinity was determined by measuring the binding affinity of [methyl-^3H]-MPPF, a radiolabeled selective ligand to the 5HT1A receptor, to the expressed fusion protein. Because the 5HT1A receptor expressed in ROS disk membranes is oriented with the extracellular side facing the interior of these disks and shielded from the solution, the detergent saponin was used to open up pores in these disk membranes and allow access to the ligands. Saponin at a concentration of 0.05% or more could effectively increase specific binding of [methyl-^3H]-MPPE to 5HT1AR transgenic tadpole membranes, but not to control tadpole membranes. […] Based on these observations, 0.05% saponin was included in all ligand binding assays.
(§4) Saturation binding assays were also performed to measure the binding affinity and compare it to 5HT1A receptor expressed in standard mammalian CHO cells. […] The low nanomolar affinity and extent of specific binding further corroborates that the 5HT1A receptor is properly folded in transgenic tadpoles. […]

[4] = target: T2, 5HT1A receptor; assay: Saturation radioligand binding to membranes from CHO cells expressing the 5HT1A receptor; conditions: membrane samples from CHO cells expressing the 5HT1A receptor, read-out: binding affinity KD
Method: as §2
Saturation binding assays were also performed to measure the binding affinity and compare it to 5HT1A receptor expressed in standard mammalian CHO cells. […] The low nanomolar affinity and extent of specific binding further corroborates that the 5HT1A receptor is properly folded in transgenic tadpoles. […] For example, the effect on binding affinity may be due to different ligand kon or koff kinetic parameters, or different partition coefficients to the different lipids present in these membranes.

[5] = target: endogenous G proteins in retina rod cells; assay: cell-based or functional assay
[6] = target: T4, rhodopsin-transducin interaction (Xenopus laevis, UniProt P29403); assay: Hydroxylamine inactivation of rhodopsin-mediated basal [35S]GTPγS binding in tadpole ROS membranes; type: biochemical; conditions: 10 mM hydroxylamine, room temperature
T4 construct: from tissue; host or cells: Xenopus laevis tadpole (retina/ROS) membranes
T4 sequence (P29403 1-354): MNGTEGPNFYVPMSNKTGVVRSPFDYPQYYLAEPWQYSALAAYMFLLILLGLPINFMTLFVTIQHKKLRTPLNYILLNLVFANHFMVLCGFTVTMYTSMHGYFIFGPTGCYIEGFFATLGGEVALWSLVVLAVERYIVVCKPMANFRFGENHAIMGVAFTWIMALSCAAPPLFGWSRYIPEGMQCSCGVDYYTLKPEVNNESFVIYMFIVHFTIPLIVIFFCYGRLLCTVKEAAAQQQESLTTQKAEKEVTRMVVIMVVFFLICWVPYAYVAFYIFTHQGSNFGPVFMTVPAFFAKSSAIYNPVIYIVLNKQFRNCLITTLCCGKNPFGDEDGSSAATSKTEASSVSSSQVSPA
Method: as §1

[7] = test system: CHO membranes; assay: Hydroxylamine effect on [35S]GTPγS binding to CHO membranes; type: biochemical; conditions: 10 mM hydroxylamine
Method: as §1

[8] = target: transducin in ROS membrane (Xenopus laevis); assay: cell-based or functional assay
[9] = test system: 5HT1AR-GFP-1D4 fusion protein; assay: Saturation radioligand binding to transgenic tadpole membranes expressing 5HT1AR-GFP-1D4; parameters: species or system human; conditions: tadpole KD versus CHO KD
Method: as §2, §3, §4

T3 sequence (P08908 with tags, fused parts or gaps): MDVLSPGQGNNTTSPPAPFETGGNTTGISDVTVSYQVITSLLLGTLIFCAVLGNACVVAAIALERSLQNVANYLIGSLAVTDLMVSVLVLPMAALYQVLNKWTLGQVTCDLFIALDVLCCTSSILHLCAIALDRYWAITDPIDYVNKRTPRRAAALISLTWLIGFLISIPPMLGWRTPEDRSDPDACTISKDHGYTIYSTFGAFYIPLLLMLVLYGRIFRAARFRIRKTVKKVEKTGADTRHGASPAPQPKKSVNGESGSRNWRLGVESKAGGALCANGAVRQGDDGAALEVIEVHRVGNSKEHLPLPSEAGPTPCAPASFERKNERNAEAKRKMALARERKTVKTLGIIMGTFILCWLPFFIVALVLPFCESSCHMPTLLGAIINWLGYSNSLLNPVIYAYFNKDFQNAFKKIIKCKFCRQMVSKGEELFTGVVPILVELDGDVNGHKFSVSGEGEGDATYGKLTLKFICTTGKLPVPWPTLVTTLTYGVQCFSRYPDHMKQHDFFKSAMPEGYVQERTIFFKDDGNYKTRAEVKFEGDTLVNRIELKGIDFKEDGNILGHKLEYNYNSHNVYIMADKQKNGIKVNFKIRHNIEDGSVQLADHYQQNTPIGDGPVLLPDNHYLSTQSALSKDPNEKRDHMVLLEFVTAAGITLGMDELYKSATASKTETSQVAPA

Compound: COc1ccccc1N1CCN(CCN(C(=O)c2ccc(F)cc2)c2ccccn2)CC1 [[methyl-^3H]-MPPF]
Kd ([3]; transgenic Xenopus tadpole membranes expressing 5HT1AR-GFP-1D4, 0.05% saponin, saturation binding, read-out: binding affinity KD): 6.7 nM | Kd [4]: 0.35 ± 0.1 nM

Compound: NO [hydroxylamine]
reduction of basal [35S]GTPγS binding [6]: ~50% | effect on [35S]GTPγS binding [7]: without significant effect

Compound: Xenopus rhodopsin (endogenous, in tadpole eye extracts) (from UniProt P29403 1-354) (receptor)
decrease in basal [^35S]GTPγS binding to tadpole membranes after treatment with 10 mM hydroxylamine [8]: 50%

Compound: [3H]C([3H])([3H])Oc1ccccc1N1CCN(CCN(C(=O)c2ccc(F)cc2)c2ccccn2)CC1 [[methyl-^3H]-MPPF]
specific binding to transgenic 5HT1A tadpole membranes ([3]; FIG. 14, 0.05% saponin, nonspecific binding with 10 μM serotonin): dose-dependent manner | difference in dissociation constants KD between transgenic tadpoles and CHO cells [9]: about 17 fold

Second part, the compound after the results:

stimulation of [35S]GTPγS binding ([1]; tadpole membranes pretreated with 10 mM hydroxylamine): about 50% | effect on [35S]GTPγS binding [2]: specifically stimulated
Compound: NCCc1c[nH]c2ccc(O)cc12 [serotonin, 5-hydroxytryptamine]

[^35S]GTPγS binding to transgenic tadpole membranes, stimulated by the agonist serotonin [5]: 50%
Compound: h5HT1AR-GFP-1D4 fusion protein (from UniProt P08908 1-422) (receptor)

effect on [35S]GTPγS binding ([1]; transgenic tadpole membranes): significantly block | effect on [35S]GTPγS binding [2]: significantly block
Compound: O=C(CCCN1CCC2(CC1)C(=O)NCN2c1ccccc1)c1ccc(F)cc1 [spiperone]
